Assay [1] deals with T1, Serine hydroxymethyltransferase, cytosolic (Homo sapiens, UniProt P34896).
T1 sequence (P34896 whole entry): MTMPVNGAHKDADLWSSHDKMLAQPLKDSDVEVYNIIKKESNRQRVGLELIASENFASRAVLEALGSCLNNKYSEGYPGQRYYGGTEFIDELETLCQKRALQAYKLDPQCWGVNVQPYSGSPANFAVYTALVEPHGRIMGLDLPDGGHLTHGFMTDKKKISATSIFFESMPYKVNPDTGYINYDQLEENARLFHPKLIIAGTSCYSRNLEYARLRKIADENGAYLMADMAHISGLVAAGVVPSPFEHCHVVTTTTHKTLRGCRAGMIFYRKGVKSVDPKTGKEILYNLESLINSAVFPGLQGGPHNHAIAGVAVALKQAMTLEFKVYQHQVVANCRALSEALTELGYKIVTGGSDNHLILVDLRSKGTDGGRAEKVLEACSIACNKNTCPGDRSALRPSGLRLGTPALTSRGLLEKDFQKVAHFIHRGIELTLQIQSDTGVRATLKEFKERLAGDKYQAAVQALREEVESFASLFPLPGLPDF
Nature of the assay: Competitive inhibition of human recombinant Serine hydroxymethyltransferase, cytosolic by spectrophotometry.

The target of assay [2] is T1, Serine hydroxymethyltransferase, cytosolic. Nature of the assay: Binding affinity to human recombinant Serine hydroxymethyltransferase, cytosolic by isothermal titration calorimetry. For orientation: In ITC the heat of successive injections is recorded.
Assay [3] shares this target. Briefly: Mixed-type inhibition of human recombinant Serine hydroxymethyltransferase, cytosolic measured by Y-axes intercepts of mixed-type inhibition against compound concentration by spectrophotometry.
For assay [4] the target is unchanged. Nature of the assay: Inhibition of human recombinant Serine hydroxymethyltransferase, cytosolic measured by slope intercepts of mixed-type inhibition against compound concentration by spectrophotometry.

Each structure is given as a SMILES string. pKd, pKi: −log10 of the molar value.

For orientation: pKi means the negative decadic logarithm of the Ki, by convention in mol/L. The pKd is the negative decadic logarithm of the Kd, by convention in mol/L.

For the molecule `Nc1nc2[nH]cc(CCc3ccc(C(=O)N[C@@H](CCC(=O)O)C(=O)O)cc3)c2c(=O)[nH]1` [PEMETREXED], the results for the pKi in assay [1], in assay [3] and in assay [4] were 4.72, 3.73 and 4.48, respectively. For the same molecule, in assay [2], the negative logarithm of the Kd (pKd) was 4.77.

For the origin of these results see ChEMBL document CHEMBL1773038, “In silico and in vitro validation of serine hydroxymethyltransferase as a chemotherapeutic target of the antifolate drug pemetrexed” (Eur J Med Chem, 2011).
